13 compounds from PubChem BioAssay (NCI) can be followed below.

Common to all, as to assay: NCI anticancer screen, dose series, 48 h
The test system of experiment [1] is MDA-MB-231 breast.
Experiment [2] deals with NCI/ADR-RES ovarian.
The test system of experiment [3] is MCF7 breast.
Experiment [4] relates to MDA-MB-435.
Experiment [5] deals with DU-145 prostate.

Molecules are shown by their SMILES.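 Tested at 5 concentrations; 48 h exposure; 96-well plates; endpoints linearly interpolated, else capped at highest concentration. GI50: concentration for 50% inhibition of growth. TGI: total growth inhibition.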

Turning to `CC(=O)OC1C2(CC3N4C(=O)C5(CO)SSC4(CC31O)C(=O)N5C)OC(C)C(C)(C)C2=O` (stereo not drawn), the GI50 in experiment [1] was below 0.01 µM; in experiment [2], below 0.042 µM; in experiment [3], below 13.9 nM; in experiment [4] it was 1.94 µM. Also, the TGI in experiment [1] was 0.0558 µM; in experiment [2] it was 0.879 µM; in experiment [3], 0.403 µM; in experiment [4], 3.75 µM; in experiment [5], 0.267 µM.

For the compound `Nc1nc(OCc2ccccc2)nc2[nH]ncc12`, the GI50 in experiment [1] was 11.4 µM; in experiment [2], 17.6 µM; in experiment [3] it was 16100 nM; in experiment [4], 16.2 µM; in experiment [5], 18400 nM. Besides, the TGI in experiment [1] was 25.6 µM; in experiment [2], 42.4 µM; in experiment [3], 33.1 µM; in experiment [4] it was 30.5 µM; in experiment [5], above 100 µM.

As to `C=C(C)CCC(C)N1CCC(N2CCC(C(=O)NCCc3ccccc3)CC2)CC1` (stereo not drawn), the GI50 in experiment [1] was 29.9 µM; in experiment [2], 37.4 µM; in experiment [3], 19600 nM; in experiment [4], 14 µM; in experiment [5] it was above 100000 nM. Further, the TGI is above 100 µM in experiment [1]; above 100 µM in experiment [2]; above 100 µM in experiment [3]; 28.5 µM in experiment [4]; above 100 µM in experiment [5].

Regarding `COc1ccc2c(c1)nc(N)c1c3cccnc3cn21`, the GI50 is 0.556 µM in experiment [1], 0.0382 µM in experiment [2], 302 nM in experiment [3] and 56.1 nM in experiment [5]. Besides, the TGI in experiment [1] was 22.4 µM; in experiment [2] it was 50.2 µM; in experiment [3], 17.5 µM; in experiment [5], above 33.6 µM.

In the case of `COc1cc(/C=C(/c2ccccc2)[N+](=O)[O-])c(OC)c2c1OCO2`, the GI50 in experiment [1] is 1.7 µM; in experiment [2], 2.43 µM; in experiment [4] it was 1.5 µM; in experiment [5], 1640 nM. The TGI in experiment [1] is 3.33 µM; in experiment [2], 7.37 µM; in experiment [4], 3.08 µM; in experiment [5], 3.02 µM.

In the case of `Cc1cc(N2CCCC2)nc(N(CCCNc2ccnc3cc(Cl)ccc23)Cc2ccc3c(c2)OCO3)n1`, the GI50 was 0.681 µM in experiment [1], 1.43 µM in experiment [2], 1170 nM in experiment [3] and 1.26 µM in experiment [4]. In addition, the TGI was determined as 3.42 µM in experiment [1], 3.92 µM in experiment [2], 4.98 µM in experiment [3] and 2.56 µM in experiment [4].

With `S=c1ssc(Sc2ccccn2)c1Cl`, the GI50 in experiment [1] is 12 µM; in experiment [2], 13.9 µM; in experiment [4], 16.8 µM; in experiment [5] it was 6520 nM. Besides, the TGI in experiment [1] came to 24.4 µM; in experiment [2], 26.8 µM; in experiment [4], 31.5 µM; in experiment [5] it was 20.2 µM.

As to `COc1ccc(-c2ccc(/C=N/n3c(COc4ccc(Cl)cc4)n[nH]c3=S)o2)c([N+](=O)[O-])c1`, the GI50 in experiment [1] is 14.2 µM; in experiment [2], 15.8 µM; in experiment [3] it was 16900 nM; in experiment [4], 25.9 µM. The TGI in experiment [1] was 48.5 µM; in experiment [2], 50 µM; in experiment [3], 56.9 µM; in experiment [4], above 100 µM.

`N#CC1C(N)=NNC12Nc1ccccc1N2` (stereo not drawn): the GI50 in experiment [1] was 3.04 µM; in experiment [2], 24.5 µM; in experiment [4], 14.1 µM; in experiment [5], 10800 nM. For the same compound, the TGI in experiment [1] was 40.6 µM; in experiment [2], 74.5 µM; in experiment [4], 63.7 µM; in experiment [5], above 100 µM.

Take `Cc1ccc2c(c1)ncn2-c1ncnc2c1CC(C)c1ccccc1N2C` (stereo not drawn): the GI50 in experiment [1] is 0.192 µM; in experiment [2] it was 0.058 µM; in experiment [3], 36.8 nM; in experiment [5], 244 nM. For the same compound, the TGI is 16.6 µM in experiment [1], 30.4 µM in experiment [2], 12.5 µM in experiment [3] and 15.6 µM in experiment [5].

Consider `COc1cnc2c(c1)C(=O)c1c-2n(CCCN2CCCC2)c(=O)c2cc(Cl)ccc12`, for which the GI50 in experiment [1] was 6.15 µM; in experiment [2], 0.222 µM; in experiment [4], 5.06 µM. Besides, the figures for the TGI in experiment [1], in experiment [2] and in experiment [4] were 15.2 µM, 8.86 µM and 10.9 µM, respectively.

As for `C[C@H](CSC(=O)c1ccccc1)C(=O)N1c2ccccc2C[C@H]1C(=O)O`, the TGI in experiment [1], in experiment [2], in experiment [3] and in experiment [5] was above 100 µM in each case.

Consider `CS(=O)(=O)Nc1cc(-c2ccc3ncnc(Nc4ccc5c(cnn5Cc5ccc(F)cc5)c4)c3c2)cnc1Cl`, for which the GI50 in experiment [2] is 17 µM; in experiment [3], 404 nM; in experiment [4], 1.1 µM; in experiment [5] it was 2660 nM. The TGI in experiment [2] was above 100 µM; in experiment [3] it was 10.2 µM; in experiment [4], 3.67 µM; in experiment [5], 19.1 µM.
